From ChEMBL document CHEMBL1129834, “A boronated benzamide as melanoma-seeking agent” (Bioorg Med Chem Lett, 1997)

What was measured:
[1] = Compound was evaluated for the biodistribution of tumor-imaging agent in B16 melanoma bearing mice muscle upon intraveneous administration at 2.6 gmol/mice after 3 hour; format: ADME, organism-based, Muscle tissue; details: mus sp., in vivo, iv
[2] = Compound was evaluated for the biodistribution of tumor-imaging agent in B16 melanoma bearing mice spleen upon intraveneous administration at 2.6 gmol/mice after 1 hour; format: ADME, organism-based; details: mus sp., in vivo, iv
[3] = Compound was evaluated for the biodistribution of tumor-imaging agent in B16 melanoma bearing mice upon intraveneous administration at 2.6 gmol/mice after 1 hour; format: ADME, organism-based; details: mus sp., in vivo, iv
[4] = Compound was evaluated for the biodistribution of tumor-imaging agent in B16 melanoma bearing mice upon intraveneous administration at 2.6 gmol/mice after 24 hour; format: ADME, organism-based; details: mus sp., in vivo, iv
[5] = Compound was evaluated for the biodistribution of tumor-imaging agent in B16 melanoma bearing mice blood upon intraveneous administration at 2.6 gmol/mice after 1 hour; format: ADME, organism-based; details: mus sp., in vivo, iv
[6] = Compound was evaluated for the biodistribution of tumor-imaging agent in B16 melanoma bearing mice blood upon intraveneous administration at 2.6 gmol/mice after 3 hour; format: ADME, organism-based; details: mus sp., in vivo, iv
[7] = Compound was evaluated for the biodistribution of tumor-imaging agent in B16 melanoma bearing mice brain upon intraveneous administration at 2.6 gmol/mice after 1 hour; format: ADME, organism-based; details: mus sp., in vivo, iv
[8] = Compound was evaluated for the biodistribution of tumor-imaging agent in B16 melanoma bearing mice brain upon intraveneous administration at 2.6 gmol/mice after 3 hour; format: ADME, organism-based; details: mus sp., in vivo, iv
[9] = Compound was evaluated for the biodistribution of tumor-imaging agent in B16 melanoma bearing mice kidney upon intraveneous administration at 2.6 gmol/mice after 24 hour; format: ADME, organism-based; details: mus sp., in vivo, iv
[10] = Compound was evaluated for the biodistribution of tumor-imaging agent in B16 melanoma bearing mice kidney upon intraveneous administration at 2.6 gmol/mice after 3 hour; format: ADME, organism-based; details: mus sp., in vivo, iv
[11] = Compound was evaluated for the biodistribution of tumor-imaging agent in B16 melanoma bearing mice uvea upon intraveneous administration at 2.6 gmol/mice after 3 hour; format: ADME, organism-based, Uveal tract; details: mus sp., in vivo, iv
[12] = Compound was evaluated for the biodistribution of tumor-imaging agent in B16 melanoma bearing mice upon intraveneous administration at 2.6 gmol/mice after 3 hour; format: ADME, organism-based; details: mus sp., in vivo, iv
[13] = Compound was evaluated for the biodistribution of tumor-imaging agent in B16 melanoma bearing mice uvea upon intraveneous administration at 2.6 gmol/mice after 24 hour; format: ADME, organism-based, Uveal tract; details: mus sp., in vivo, iv
[14] = Compound was evaluated for the biodistribution of tumor-imaging agent in B16 melanoma bearing mice liver upon intraveneous administration at 2.6 gmol/mice after 1 hour; format: ADME, organism-based; details: mus sp., in vivo, iv
[15] = Compound was evaluated for the biodistribution of tumor-imaging agent in B16 melanoma bearing mice liver upon intraveneous administration at 2.6 gmol/mice after 24 hour; format: ADME, organism-based; details: mus sp., in vivo, iv
[16] = Compound was evaluated for the biodistribution of tumor-imaging agent in B16 melanoma bearing mice liver upon intraveneous administration at 2.6 gmol/mice after 3 hour; format: ADME, organism-based; details: mus sp., in vivo, iv
[17] = Compound was evaluated for the biodistribution of tumor-imaging agent in B16 melanoma bearing mice lungs upon intraveneous administration at 2.6 gmol/mice after 1 hour; format: ADME, organism-based; details: mus sp., in vivo, iv
[18] = Compound was evaluated for the biodistribution of tumor-imaging agent in B16 melanoma bearing mice lungs upon intraveneous administration at 2.6 gmol/mice after 3 hour; format: ADME, organism-based; details: mus sp., in vivo, iv
[19] = Compound was evaluated for the biodistribution of tumor-imaging agent in B16 melanoma bearing mice muscle upon intraveneous administration at 2.6 gmol/mice after 1 hour; format: ADME, organism-based, Muscle tissue; details: mus sp., in vivo, iv
[20] = Compound was evaluated for the biodistribution of tumor-imaging agent in B16 melanoma bearing mice muscle upon intraveneous administration at 2.6 gmol/mice after 24 hour; format: ADME, organism-based, Muscle tissue; details: mus sp., in vivo, iv
[21] = Partition coefficient (logP); format: physicochemical; details: octanol/water
[22] = Acute toxicity of compound in OF1 mice; format: organism-based; details: OF1, mouse, in vivo
[23] = Compound was evaluated for the biodistribution of tumor-imaging agent in B16 melanoma bearing mice spleen upon intraveneous administration at 2.6 gmol/mice after 3 hour; format: ADME, organism-based; details: mus sp., in vivo, iv
[24] = Compound was evaluated for the biodistribution of tumor-imaging agent in B16 melanoma bearing mice kidney upon intraveneous administration at 2.6 gmol/mice after 1 hour; format: ADME, organism-based; details: mus sp., in vivo, iv

With `CCN(CC)CCNC(=O)c1ccc(B2OCCCO2)cc1` as the molecule, how does the Injected dose/g [1] read?
The Injected dose/g was 1.96%.

And the Injected dose/g [2]?
The Injected dose/g was 2.61%.

And the Injected dose/g [3]?
The Injected dose/g was 3.26%.

What about the Injected dose/g [4] of the same molecule?
The Injected dose/g was 0.52%.

And the Injected dose/g [5]?
Its Injected dose/g is 2.53%.

What about the Injected dose/g [6] of the same molecule?
The Injected dose/g was 0.97%.

And the Injected dose/g [7]?
The Injected dose/g was 0.19%.

What about the Injected dose/g [8] of the same molecule?
Its Injected dose/g is 0.18%.

And the Injected dose/g [9]?
Its Injected dose/g is 0.13%.

What about the Injected dose/g [10] of the same molecule?
Its Injected dose/g is 3.38%.

And the Injected dose/g [11]?
Its Injected dose/g is 2.78%.

What about the Injected dose/g [12] of the same molecule?
Its Injected dose/g is 2.89%.

And the Injected dose/g [13]?
The Injected dose/g was 0.84%.

What about the Injected dose/g [14] of the same molecule?
The Injected dose/g was 5.11%.

And the Injected dose/g [15]?
The Injected dose/g was 0.22%.

And the Injected dose/g [16]?
Its Injected dose/g is 4.76%.

What about the Injected dose/g [17] of the same molecule?
The Injected dose/g was 1.91%.

What about the Injected dose/g [18] of the same molecule?
The Injected dose/g was 1.24%.

And the Injected dose/g [19]?
The Injected dose/g was 2.95%.

And the Injected dose/g [20]?
The Injected dose/g was 0.04%.

What about the logP [21] of the same molecule?
Its logP is -1.

And the LD50 [22]?
Its LD50 is 1860 µmol/kg.

And the Injected dose/g [23]?
Its Injected dose/g is 1.53%.

What about the Injected dose/g [24] of the same molecule?
Its Injected dose/g is 4.88%.
